Legend:
wheat, winter = experiment: Test D preemergence; type: in vivo, Triticum aestivum; conditions: for Plant response rating, Wheat, Winter: Preemergence, scale 0 to 100
Text: (§1) Seeds of plant species selected from bluegrass (annual bluegrass, Poa annua), blackgrass (Alopecurus myosuroides), canarygrass (littleseed canarygrass, Phalaris minor), chickweed (common chickweed, Stellaria media), galium (catchweed bedstraw, Galium aparine), bromegrass, downy (downy bromegrass, Bromus tectorum), field poppy (Papaver rhoeas), field violet (Viola arvensis), foxtail, green (green foxtail, Setaria viridis), deadnettle (henbit deadnettle, Lamium amplexicaule), ryegrass, Italian (Italian ryegrass, Lolium multiflorum), kochia (Kochia scoparia), lambsquarters (Chenopodium album), oilseed rape (Brassica napus), pigweed (redroot pigweed, Amaranthus retroflexus), chamomile (scentless chamomile, Matricaria inodora), speedwell (bird's-eye speedwell, Veronica persica), barley, spring (spring barley, Hordeum vulgare), wheat, spring (spring wheat, Triticum aestivum), buckwheat, wild (wild buckwheat, Polygonum convolvulus), mustard, wild (wild mustard, Sinapis arvensis), oat, wild (wild oat, Avena fatua), radish, wild (wild radish, Raphanus raphanistrum), windgrass (Apera spica-venti), Russian thistle (Salsola kali), barley, winter (winter barley, Hordeum vulgare), and wheat, winter (winter wheat, Triticum aestivum) were planted into a silt loam soil and treated preemergence with test chemicals formulated in a non-phytotoxic solvent mixture which included a surfactant.
(§2) At the same time, these species were planted in pots containing Redi-Earth® planting medium (Scotts Company, 14111 Scottslawn Road, Marysville, Ohio 43041) comprising spaghnum peat moss, vermiculite, wetting agent and starter nutrients and treated with postemergence applications of the test chemicals formulated in the same manner. Plants ranged in height from 2 to 18 cm (1- to 4-leaf stage). Treated plants and controls were maintained in a controlled growth environment for 14 to 21 days after which time all species were compared to controls and visually evaluated. Plant response ratings, summarized in Table D, are based on a scale of 0 to 100 where 0 is no effect and 100 is complete control. A dash (-) response means no test result.

wheat, spring = experiment: Test D preemergence; type: in vivo, Triticum aestivum; conditions: for Plant response rating, Wheat, Spring: Preemergence, scale 0 to 100
Text: as §1, §2

barley, spring = experiment: Test D preemergence; type: in vivo, Hordeum vulgare; conditions: for Plant response rating, Barley, Spring: Preemergence, scale 0 to 100
Text: as §1, §2

barley, winter = experiment: Test D preemergence; type: in vivo, Hordeum vulgare; conditions: for Plant response rating, Barley, Winter: Preemergence, scale 0 to 100
Text: as §1, §2

lambsquarters = experiment: Test D preemergence; type: in vivo, Chenopodium album; conditions: for Plant response rating, Lambsquarters: Preemergence, scale 0 to 100
Text: as §1, §2

ryegrass, Italian [1] = experiment: Test D postemergence; type: in vivo, Lolium multiflorum; conditions: scale 0 to 100
Text: as §1, §2

canarygrass = experiment: Test D preemergence; type: in vivo, Phalaris minor; conditions: for Plant response rating, Canarygrass: Preemergence, scale 0 to 100
How it was run: (§3)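 Postemergence activity was tested on plants at the 1- to 4-leaf stage (2–18 cm) grown in peat-based medium, and preemergence activity on seeds in silt loam, with chemicals in a surfactant-containing non-phytotoxic solvent. Controlled-environment growth lasted 14–21 days before visual 0–100 scoring.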

chamomile = experiment: Test D postemergence; type: in vivo, Matricaria inodora; conditions: scale 0 to 100
Text: as §1, §2

ryegrass, Italian [2] = experiment: Test D preemergence; type: in vivo, Lolium multiflorum; conditions: for Plant response rating, Ryegrass, Italian: Preemergence, scale 0 to 100
Text: as §1, §2

chickweed = experiment: Test D preemergence; type: in vivo, Stellaria media; conditions: for Plant response rating, Chickweed: Preemergence, scale 0 to 100
How it was run: as §3

mustard, wild = experiment: Test D postemergence; type: in vivo, Sinapis arvensis; conditions: scale 0 to 100
Text: as §1, §2

buckwheat, wild = experiment: Test D preemergence; type: in vivo, Polygonum convolvulus; conditions: for Plant response rating, Buckwheat, Wild: Preemergence, scale 0 to 100
Text: as §1, §2

blackgrass = experiment: Test D preemergence; type: in vivo, Alopecurus myosuroides; conditions: for Plant response rating, Blackgrass: Preemergence, scale 0 to 100
How it was run: as §3

oilseed rape [3] = experiment: Test D postemergence; type: in vivo, Brassica napus; conditions: scale 0 to 100
How it was run: as §3

windgrass = experiment: Test D preemergence; type: in vivo, Apera spica-venti; conditions: for Plant response rating, Windgrass: Preemergence, scale 0 to 100
Text: as §1, §2

field poppy = experiment: Test D preemergence; type: in vivo, Papaver rhoeas; conditions: for Plant response rating, Field Poppy: Preemergence, scale 0 to 100
Text: as §1, §2

pigweed = experiment: Test D preemergence; type: in vivo, Amaranthus retroflexus; conditions: for Plant response rating, Pigweed: Preemergence, scale 0 to 100
Text: as §1, §2

oilseed rape [4] = experiment: Test D preemergence; type: in vivo, Brassica napus; conditions: for Plant response rating, Oilseed Rape: Preemergence, scale 0 to 100
How it was run: as §3

galium = experiment: Test D preemergence; type: in vivo, Galium aparine; conditions: Preemergence, scale 0 to 100
Text: as §1, §2

oat, wild = experiment: Test D postemergence; type: in vivo, Avena fatua; conditions: scale 0 to 100
How it was run: as §3

[5] = 16 g ai/ha, taken as preemergence

Structure (SMILES): O=C(NC1CC1)c1cc(CCF)n(Cc2ccnc(C(F)(F)F)c2)n1 [Compound 176]
- Plant response rating (scale 0 to 100), Wheat, Winter (wheat, winter; [5]): 0
- Plant response rating, Wheat, Winter (wheat, winter; 62 g ai/ha): 0
- Plant response rating, Wheat, Winter (wheat, winter; 125 g ai/ha): 5
- Plant response rating (scale 0 to 100), Wheat, Spring (wheat, spring; [5]): 0
- Plant response rating, Wheat, Spring (wheat, spring; 62 g ai/ha): 0
- Plant response rating, Wheat, Spring (wheat, spring; 125 g ai/ha): 5
- Plant response rating (scale 0 to 100), Barley, Spring (barley, spring; 16 g ai/ha, taken as preemergence, 0 = no effect, 100 = complete control): 0
- Plant response rating, Barley, Spring (barley, spring; 31 g ai/ha): 0
- Plant response rating, Barley, Spring (barley, spring; 62 g ai/ha): 0
- Plant response rating, Barley, Spring (barley, spring; 125 g ai/ha): 0
- Plant response rating (scale 0 to 100), Barley, Winter (barley, winter; [5]): 0
- Plant response rating, Barley, Winter (barley, winter; 31 g ai/ha): 0
- Plant response rating, Barley, Winter (barley, winter; 62 g ai/ha): 0
- Plant response rating, Barley, Winter (barley, winter; 125 g ai/ha): 0
- Plant response rating (scale 0 to 100), Lambsquarters (lambsquarters; [5]): 0
- Plant response rating, Lambsquarters (lambsquarters; 62 g ai/ha): 65
- Plant response rating, Lambsquarters (lambsquarters; 125 g ai/ha): 95
- Plant response rating, Ryegrass, Italian (ryegrass, Italian [1]; Postemergence, 16 g ai/ha): 5
- Ryegrass, Italian plant response rating (ryegrass, Italian [1]; Postemergence, 31 g ai/ha): 5
- Ryegrass, Italian plant response rating (ryegrass, Italian [1]; Postemergence, 125 g ai/ha): 10
- Ryegrass, Italian plant response rating (ryegrass, Italian [1]; postemergence, 62 g ai/ha): 5
- Plant response rating (scale 0 to 100), Canarygrass (canarygrass; [5]): 0
- Plant response rating, Canarygrass (canarygrass; 31 g ai/ha): 5
- Plant response rating, Canarygrass (canarygrass; 62 g ai/ha): 25
- Plant response rating, Canarygrass (canarygrass; 125 g ai/ha): 35
- Plant response rating, Chamomile (chamomile; Postemergence, 16 g ai/ha): 10
- Chamomile plant response rating (chamomile; Postemergence, 31 g ai/ha): 15
- Chamomile plant response rating (chamomile; Postemergence, 125 g ai/ha): 35
- Chamomile plant response rating (chamomile; postemergence, 62 g ai/ha): 15
- Plant response rating (scale 0 to 100), Ryegrass, Italian (ryegrass, Italian [2]; [5]): 0
- Plant response rating, Ryegrass, Italian (ryegrass, Italian [2]; 62 g ai/ha): 25
- Plant response rating, Ryegrass, Italian (ryegrass, Italian [2]; 125 g ai/ha): 30
- Plant response rating (scale 0 to 100), Chickweed (chickweed; [5]): 10
- Plant response rating, Chickweed (chickweed; 31 g ai/ha): 50
- Plant response rating, Chickweed (chickweed; 62 g ai/ha): 85
- Plant response rating, Chickweed (chickweed; 125 g ai/ha): 100
- Plant response rating, Mustard, Wild (mustard, wild; Postemergence, 16 g ai/ha): 25
- Mustard, Wild plant response rating (mustard, wild; Postemergence, 31 g ai/ha): 55
- Mustard, Wild plant response rating (mustard, wild; Postemergence, 125 g ai/ha): 70
- Mustard, Wild plant response rating (mustard, wild; postemergence, 62 g ai/ha): 55
- Plant response rating (scale 0 to 100), Buckwheat, Wild (buckwheat, wild; [5]): 0
- Plant response rating, Buckwheat, Wild (buckwheat, wild; 31 g ai/ha): 15
- Plant response rating, Buckwheat, Wild (buckwheat, wild; 62 g ai/ha): 95
- Plant response rating, Buckwheat, Wild (buckwheat, wild; 125 g ai/ha): 85
- Plant response rating (scale 0 to 100), Blackgrass (blackgrass; [5]): 0
- Plant response rating, Blackgrass (blackgrass; 31 g ai/ha): 0
- Plant response rating, Blackgrass (blackgrass; 62 g ai/ha): 10
- Plant response rating, Blackgrass (blackgrass; 125 g ai/ha): 20
- Plant response rating, Oilseed Rape (oilseed rape [3]; Postemergence, 16 g ai/ha): 20
- Oilseed Rape plant response rating (oilseed rape [3]; Postemergence, 31 g ai/ha): 40
- Oilseed Rape plant response rating (oilseed rape [3]; Postemergence, 125 g ai/ha): 55
- Oilseed Rape plant response rating (oilseed rape [3]; postemergence, 62 g ai/ha): 40
- Plant response rating (scale 0 to 100), Windgrass (windgrass; [5]): 0
- Plant response rating, Windgrass (windgrass; 62 g ai/ha): 10
- Plant response rating, Windgrass (windgrass; 125 g ai/ha): 40
- Plant response rating (scale 0 to 100), Field Poppy (field poppy; [5]): 10
- Plant response rating, Field Poppy (field poppy; 62 g ai/ha): 55
- Plant response rating, Field Poppy (field poppy; 125 g ai/ha): 100
- Plant response rating (scale 0 to 100), Pigweed (pigweed; [5]): 10
- Plant response rating, Pigweed (pigweed; 62 g ai/ha): 40
- Plant response rating, Pigweed (pigweed; 125 g ai/ha): 100
- Plant response rating (scale 0 to 100), Oilseed Rape (oilseed rape [4]; [5]): 0
- Plant response rating, Oilseed Rape (oilseed rape [4]; 62 g ai/ha): 35
- Plant response rating, Oilseed Rape (oilseed rape [4]; 125 g ai/ha): 65
- Plant response rating, Galium (galium; 62 g ai/ha): 60
- Plant response rating, Galium (galium; 125 g ai/ha): 85
- Plant response rating, Oat, Wild (oat, wild; Postemergence, 16 g ai/ha): 5
- Oat, Wild plant response rating (oat, wild; Postemergence, 31 g ai/ha): 15
- Oat, Wild plant response rating (oat, wild; Postemergence, 125 g ai/ha): 20
- Oat, Wild plant response rating (oat, wild; postemergence, 62 g ai/ha): 15

Source: patent US20150105252A1, “SUBSTITUTED PYRAZOLES AS HERBICIDES” (E I DU PONT DE NEMOURS AND COMPANY, priority 2013, published 2015)
